Experiments:
K-562 = experiment: In vitro tumor cell efficacy test (SRB), Leukemia; format: cell-based; conditions: Homo sapiens, K562, K-562, Leukemia, 72 hours
M14 = experiment: In vitro tumor cell efficacy test (SRB), Melonoma; format: cell-based; conditions: Homo sapiens, 72 hours
KM12 = experiment: In vitro tumor cell efficacy test (SRB), Colon Cancer; format: cell-based; conditions: Homo sapiens, 72 hours
SK-OV-3 = experiment: In vitro tumor cell efficacy test (SRB), Ovarian Cancer; format: cell-based; conditions: Homo sapiens, SK-OV-3, Ovarian Cancer, 72 hours
NCI/ADR-RES = experiment: In vitro tumor cell efficacy test (SRB), Breast Cancer; format: cell-based; conditions: Homo sapiens, 72 hours
SF-539 = experiment: In vitro tumor cell efficacy test (SRB), CNS Cancer; format: cell-based; conditions: Homo sapiens; SF-539, CNS Cancer, 72 hours
NCI-H23 = format: cell-based; conditions: Homo sapiens, NCI-H23, Non-Small Cell Lung Cancer, 72 hours
CAKI-1 = experiment: In vitro tumor cell efficacy test (SRB), Renal Cancer; format: cell-based; conditions: Homo sapiens, CAKI-1, Renal Cancer, 72 hours
UO-31 = experiment: as above; format: cell-based; conditions: Homo sapiens, UO-31, Renal Cancer, 72 hours
A498 = experiment: as above; format: cell-based; conditions: Homo sapiens, 72 hours
SK-MEL-5 = experiment: In vitro tumor cell efficacy test (SRB), Melonoma; format: cell-based; conditions: Homo sapiens, SK-MEL-5, Melonoma, 72 hours
panel of protein kinases = experiment: Specificity studies, overall statement; format: biochemical
Experimental: The assays of kinases were determined by monitoring the phosphorylation of appropriate substrates. The assay mixture contained 0.1 mM cold ATP ^33P-γ-ATP (2000-4000 cpm/μL), 0.1 mM substrate, 1 mM DTT, and 10 mM MgCl2 in 100 mM HEPES buffer pH 7.4. The assay mixture, along with inhibitor and kinase enzyme (0.3-0.4 U/mL), was mixed together in a microtiter 96-well plate in a final volume of 40 μL, sealed and incbated for 1 hour at 30° C. Following incubation, a 15 μL aliquot was added to a Whatman P81 filtration plate containing 100 μL 0.5% phosphoric acid. This mixture was allowed to stand for 5 minutes prior to filtration on a vacuum manifold. The filter plate was washed with 5 successive additions of 300 μL 0.5% phosporic acid. The filtration plate was air dried for 10 minutes before sealing the bottom. After addition of scintillation fluid to the sealed plate, phosphorylated substrate was quantified in a scintillation counter.

PC-3 = experiment: In vitro tumor cell efficacy test (SRB), Prostate Cancer; format: cell-based; conditions: Homo sapiens, PC-3, Prostate Cancer, 72 hours
CCRF-CEM = experiment: In vitro tumor cell efficacy test (SRB), Leukemia; format: cell-based; conditions: Homo sapiens, 72 hours
SR = experiment: In vitro tumor cell efficacy test (SRB), Leukemia; format: cell-based; conditions: Homo sapiens, 72 hours
UACC-62 = experiment: In vitro tumor cell efficacy test (SRB), Melonoma; format: cell-based; conditions: Homo sapiens, UACC-62, Melonoma, 72 hours
SK-MEL-28 = experiment: In vitro tumor cell efficacy test (SRB), Melonoma; format: cell-based; conditions: Homo sapiens, SK-MEL-28, Melonoma, 72 hours
MALME-3M = experiment: In vitro tumor cell efficacy test (SRB), Melonoma; format: cell-based; conditions: Homo sapiens, 72 hours
HCC-2998 = experiment: In vitro tumor cell efficacy test (SRB), Colon Cancer; format: cell-based; conditions: Homo sapiens, HCC-2998, Colon Cancer, 72 hours
U251 = experiment: In vitro tumor cell efficacy test (SRB), CNS Cancer; format: cell-based; conditions: Homo sapiens, U-251, 72 hours
SN12C = experiment: In vitro tumor cell efficacy test (SRB), Renal Cancer; format: cell-based; conditions: Homo sapiens, 72 hours
HOP-92 = format: cell-based; conditions: Homo sapiens, HOP-92, Non-Small Cell Lung Cancer, 72 hours
MOLT-4 = experiment: In vitro tumor cell efficacy test (SRB), Leukemia; format: cell-based; conditions: Homo sapiens, MOLT-4, Leukemia, 72 hours
A549/ATCC = format: cell-based; conditions: Homo sapiens, Non-Small Cell Lung Cancer, 72 hours
UACC-257 = experiment: In vitro tumor cell efficacy test (SRB), Melonoma; format: cell-based; conditions: Homo sapiens, UACC-257, Melonoma, 72 hours
MCF7 = experiment: In vitro tumor cell efficacy test (SRB), Breast Cancer; format: cell-based; conditions: Homo sapiens, 72 hours
SF-295 = experiment: In vitro tumor cell efficacy test (SRB), CNS Cancer; format: cell-based; conditions: Homo sapiens, SF-295, CNS Cancer, 72 hours
HOP-62 = format: cell-based; conditions: Homo sapiens, HOP-62, Non-Small Cell Lung Cancer, 72 hours
SF-268 = experiment: In vitro tumor cell efficacy test (SRB), CNS Cancer; format: cell-based; conditions: Homo sapiens, SF-268, CNS Cancer, 72 hours
SNB-19 = experiment: as above; format: cell-based; conditions: Homo sapiens, SNB-19, CNS Cancer, 72 hours
[1] = read-out: Log (LC50) (the source's name) (converted)

Nc1nccc(-c2cc(-c3ccc(O)cc3)ccc2O)n1 [3-(2-Amino-pyrimidin-4-yl)-biphenyl-4,4′-diol]
GI50 (K-562): 398 nM | CC50 (K-562; [1]): > 100000 nM | GI50 (M14): 398 nM | CC50 (M14; [1]): > 100000 nM | GI50 (KM12): 126 nM | CC50 (KM12; [1]): > 100000 nM | GI50 (SK-OV-3): 501 nM | CC50 (SK-OV-3; [1]): > 100000 nM | GI50 (NCI/ADR-RES): 316 nM | CC50 (NCI/ADR-RES; [1]): > 100000 nM | GI50 (SF-539): 200 nM | LC50 (SF-539): > 100000 nM | GI50 (NCI-H23): 251 nM | CC50 (NCI-H23; [1]): > 100000 nM | GI50 (CAKI-1): 398 nM | CC50 (CAKI-1; [1]): > 100000 nM | GI50 (UO-31): 251 nM | CC50 (UO-31; [1]): > 100000 nM | GI50 (A498): 1580 nM | CC50 (A498; [1]): > 100000 nM | GI50 (SK-MEL-5): 100 nM | CC50 (SK-MEL-5; [1]): 20000 nM | specificity (panel of protein kinases; CDK5 and CDK2 versus a panel of protein kinases): highly specific for CDK5 and CDK2 | inhibition against a panel of protein kinases (panel of protein kinases; panel of protein kinases): little inhibition | GI50 (PC-3): 251 nM | CC50 (PC-3; [1]): > 100000 nM | GI50 (CCRF-CEM): 200 nM | CC50 (CCRF-CEM; [1]): 79400 nM | GI50 (SR): 10 nM | CC50 (SR; [1]): > 100000 nM | GI50 (UACC-62): 200 nM | CC50 (UACC-62; [1]): 12600 nM | GI50 (SK-MEL-28): 251 nM | CC50 (SK-MEL-28; [1]): > 100000 nM | GI50 (MALME-3M): 501 nM | CC50 (MALME-3M; [1]): > 100000 nM | GI50 (HCC-2998): 1260 nM | CC50 (HCC-2998; [1]): > 100000 nM | GI50 (U251): 200 nM | CC50 (U251; [1]): > 100000 nM | GI50 (SN12C): 251 nM | CC50 (SN12C; [1]): > 100000 nM | GI50 (HOP-92): 398 nM | CC50 (HOP-92; [1]): > 100000 nM | GI50 (MOLT-4): 251 nM | CC50 (MOLT-4; [1]): > 100000 nM | GI50 (A549/ATCC): 316 nM | GI50 (UACC-257): 1260 nM | CC50 (UACC-257; [1]): > 100000 nM | GI50 (MCF7): 251 nM | LC50 (MCF7): > 100000 nM | GI50 (SF-295): 251 nM | CC50 (SF-295; [1]): > 100000 nM | GI50 (HOP-62): 79.4 nM | CC50 (HOP-62; [1]): 7940 nM | GI50 (SF-268): 251 nM | CC50 (SF-268; [1]): > 100000 nM | GI50 (SNB-19): 200 nM | CC50 (SNB-19; [1]): 20000 nM
